From ChEMBL document CHEMBL3132761, “Construction of phenoxazine rings containing nitro and sulfonic acid groups leading to phenoxazine-3-sulfonamide derivatives: their evaluation as novel and potential insulin secretagogues” (Medchemcomm, 2014)
Active and inactive are the calls of the source. No cut-off for these calls is given here.

Columns and labels:
Rattus norvegicus [1] = assay: Hypoglycemic activity in 18 hrs fasted Wistar albino rat assessed as reduction of blood glucose level at 10 mg/kg, po after 6 hrs (reference value: 101.01 +/- 1.60 mg/dl); format: functional
Rattus norvegicus [2] = assay: Hypoglycemic activity in 18 hrs fasted Wistar albino rat assessed as reduction of blood glucose level at 10 mg/kg, po after 4 hrs (reference value: 97.13 +/- 2.89 mg/dl); format: functional
Rattus norvegicus [3] = assay: Hypoglycemic activity in 18 hrs fasted Wistar albino rat assessed as reduction of blood glucose level at 10 mg/kg, po after 2 hrs (reference value: 101.03 +/- 1.93 mg/dl); format: functional
Rattus norvegicus [4] = assay: Hypoglycemic activity in over night fasted Wistar albino rat assessed as reduction of blood glucose level at 10 mg/kg, po administered 30 mins before glucose challenge measured after 120 mins by intraperitoneal glucose tolerance test (reference value: 101.07 +/- 8.98 mg/dl); format: functional
Rattus norvegicus [5] = assay: Hypoglycemic activity in over night fasted Wistar albino rat assessed as reduction of blood glucose level at 10 mg/kg, po administered 30 mins before glucose challenge measured after 90 mins by intraperitoneal glucose tolerance test (reference value: 94.44 +/- 6.99 mg/dl); format: functional
Rattus norvegicus [6] = assay: Hypoglycemic activity in over night fasted Wistar albino rat assessed as reduction of blood glucose level at 10 mg/kg, po administered 30 mins before glucose challenge measured after 60 mins by intraperitoneal glucose tolerance test (reference value: 106.07 +/- 13.98 mg/dl); format: functional
Rattus norvegicus [7] = assay: Hypoglycemic activity in over night fasted Wistar albino rat assessed as reduction of blood glucose level at 10 mg/kg, po administered 30 mins before glucose challenge measured after 30 mins by intraperitoneal glucose tolerance test (reference value: 109.28 +/- 20.53 mg/dl); format: functional
Hepatocyte [8] = assay: Cytotoxicity against rat primary hepatocytes after 16 hrs; format: cell-based
Hepatocyte [9] = assay: Cytotoxicity against rat primary hepatocytes after 6 hrs; format: cell-based
[10] = biological target: T1, Peroxisome proliferator-activated receptor gamma (Homo sapiens) (UniProt P37231); assay: Agonist activity at human GAL4-fused PPARgamma LBD expressed in HEK293T cells co-expressing DBD at 1 uM by luciferase based transactivation assay relative to control; format: cell-based; settings: HEK-293T
T1 sequence (whole entry): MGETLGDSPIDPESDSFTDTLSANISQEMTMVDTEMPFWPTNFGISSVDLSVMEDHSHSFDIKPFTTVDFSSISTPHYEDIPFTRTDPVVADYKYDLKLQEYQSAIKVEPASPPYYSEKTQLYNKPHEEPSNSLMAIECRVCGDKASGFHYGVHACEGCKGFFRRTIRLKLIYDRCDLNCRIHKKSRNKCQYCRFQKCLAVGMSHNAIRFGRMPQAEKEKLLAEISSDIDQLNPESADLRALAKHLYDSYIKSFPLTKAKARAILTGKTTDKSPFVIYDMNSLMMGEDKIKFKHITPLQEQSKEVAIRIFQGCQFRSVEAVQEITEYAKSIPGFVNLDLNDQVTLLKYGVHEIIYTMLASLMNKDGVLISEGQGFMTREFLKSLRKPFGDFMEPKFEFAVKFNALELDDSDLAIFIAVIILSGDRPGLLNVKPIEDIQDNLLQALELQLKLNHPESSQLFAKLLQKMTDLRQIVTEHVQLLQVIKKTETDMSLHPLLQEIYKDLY

Rattus norvegicus [11] = assay: Antidiabetic activity in streptozotocin-nicotinamide-induced diabetic model of Wistar albino rat assessed as granulated pancreatic islets with prominent hyperplasticity at 10 mg/kg, po administered for 14 days measured on day 14 relative to control; format: functional, organism-based; set-up: dose 10 mg/kg
Rattus norvegicus [12] = assay: Antidiabetic activity in Wistar albino rat assessed as reversal of diabetic-induced muscle wasting by measuring increase in body weight at 10 mg/kg, po administered for 14 days measured on day 14 relative to control; format: functional
Rattus norvegicus [13] = assay: Antidiabetic activity in Wistar albino rat assessed as reversal of diabetic-induced SGPT level in liver at 10 mg/kg, po administered for 14 days measured on day 14 relative to control; format: functional
Rattus norvegicus [14] = assay: Antidiabetic activity in Wistar albino rat assessed as reversal of diabetic-induced SGOT level in liver at 10 mg/kg, po administered for 14 days measured on day 14 relative to control; format: functional
Rattus norvegicus [15] = assay: Hypolipidemic activity in Wistar albino rat assessed as reduction of serum triglyceride level at 10 mg/kg, po administered for 14 days measured on day 14 after 1 to 8 hrs relative to control; format: functional
Rattus norvegicus [16] = assay: Hypolipidemic activity in Wistar albino rat assessed as reduction of total cholesterol level at 10 mg/kg, po administered for 14 days measured on day 14 after 1 to 8 hrs relative to control; format: functional
Rattus norvegicus [17] = assay: Antidiabetic activity in streptozotocin-nicotinamide-induced diabetic model of Wistar albino rat assessed as reduction of blood glucose level at 10 mg/kg, po administered for 14 days measured on day 14 after 1 to 8 hrs relative to control; format: functional
Rattus norvegicus [18] = assay: Antidiabetic activity in streptozotocin-nicotinamide-induced diabetic model of Wistar albino rat assessed as reduction of blood glucose level at 10 mg/kg, po administered for 14 days measured on day 7 after 1 to 8 hrs relative to control; format: functional
Rattus norvegicus [19] = assay: Antidiabetic activity in streptozotocin-nicotinamide-induced diabetic model of Wistar albino rat assessed as reduction of blood glucose level at 10 mg/kg, po after 8 hrs relative to control; format: functional
Rattus norvegicus [20] = assay: Antidiabetic activity in streptozotocin-nicotinamide-induced diabetic model of Wistar albino rat assessed as reduction of blood glucose level at 10 mg/kg, po after 6 hrs relative to control; format: functional
Rattus norvegicus [21] = assay: Antidiabetic activity in streptozotocin-nicotinamide-induced diabetic model of Wistar albino rat assessed as reduction of blood glucose level at 10 mg/kg, po after 4 hrs relative to control; format: functional
Rattus norvegicus [22] = assay: Antidiabetic activity in streptozotocin-nicotinamide-induced diabetic model of Wistar albino rat assessed as reduction of blood glucose level at 10 mg/kg, po after 2 hrs relative to control; format: functional
Rattus norvegicus [23] = assay: Antidiabetic activity in streptozotocin-nicotinamide-induced diabetic model of Wistar albino rat assessed as reduction of blood glucose level at 10 mg/kg, po after 1 hr relative to control; format: functional

| SMILES | Activity (Rattus norvegicus [1]) [mg/dL] | Activity (Rattus norvegicus [2]) [mg/dL] | Activity (Rattus norvegicus [3]) [mg/dL] | Activity (Rattus norvegicus [4]) [mg/dL] | Activity (Rattus norvegicus [5]) [mg/dL] | Activity (Rattus norvegicus [6]) [mg/dL] | Activity (Rattus norvegicus [7]) [mg/dL] | further results |
| --- | --- | --- | --- | --- | --- | --- | --- | --- |
| CCN(CC)S(=O)(=O)c1cc2c(c([N+](=O)[O-])c1)Nc1ccccc1O2 | 118.75 | 113.54 | 122.92 | – | – | – | – | – |
| Cc1ccc(NS(=O)(=O)c2cc3c(c([N+](=O)[O-])c2)Nc2ccccc2O3)c(C)c1 | 85.42 | 89.88 | 93.55 | – | – | – | – | – |
| O=[N+]([O-])c1cc(S(=O)(=O)Nc2cccc(F)c2)cc2c1Nc1ccccc1O2 | 93.94 | 87.88 | 95.45 | – | – | – | – | – |
| COc1ccc(NS(=O)(=O)c2cc3c(c([N+](=O)[O-])c2)Nc2ccccc2O3)cc1 | 74.47 | 120.31 | 116.66 | 107.14 | 91.42 | 96.07 | 130.35 | – |
| COc1ccc(CNS(=O)(=O)c2cc3c(c([N+](=O)[O-])c2)Nc2ccccc2O3)cc1 | 85.93 | 102.08 | 102.6 | – | – | – | – | – |
| O=[N+]([O-])c1cc(S(=O)(=O)NCc2ccco2)cc2c1Nc1ccccc1O2 | 100.76 | 86.36 | 96.21 | 83.89 | 80 | 81.89 | 115.43 | – |
| Cc1ccccc1NS(=O)(=O)c1cc2c(c([N+](=O)[O-])c1)Nc1ccccc1O2 | 87.93 | 73.33 | 52.43 | 100 | 97.32 | 100.44 | 123.21 | – |
| O=[N+]([O-])c1cc(S(=O)(=O)NCc2cccs2)cc2c1Nc1ccccc1O2 | 84.37 | 114.06 | 86.45 | – | – | – | – | – |
| NS(=O)(=O)c1cc2c(c([N+](=O)[O-])c1)Nc1ccccc1O2 | 51.04 | 69.79 | 65.62 | 122.85 | 105.72 | 112.31 | 124.2 | – |
| CN(CCOc1ccc(CC2SC(=O)NC2=O)cc1)c1ccccn1 (stereo not drawn) [ROSIGLITAZONE] | – | – | – | – | – | – | – | IC50 (Hepatocyte [8]): 165 µM; IC50 (Hepatocyte [9]): 225 µM |
| O=[N+]([O-])c1cc(S(=O)(=O)NC2CCCCC2)cc2c1Nc1ccccc1O2 | 90.2 | 85.63 | 90.22 | – | – | – | – | – |
| CCCNS(=O)(=O)c1cc2c(c([N+](=O)[O-])c1)Nc1ccccc1O2 | 98.7 | 88.7 | 75.48 | – | – | – | – | – |
| O=[N+]([O-])c1cc(S(=O)(=O)Nc2ccc(O)cc2)cc2c1Nc1ccccc1O2 | 66.14 | 44.65 | 46.34 | 98.91 | 78.1 | 95.4 | 102.43 | IC50 (Hepatocyte [8]): 274 µM; IC50 (Hepatocyte [9]): 343 µM; fold change (FC) [10]: 15.5; Activity (Rattus norvegicus [11]): Active; Activity (Rattus norvegicus [12]): 242 g; Activity (Rattus norvegicus [13]): 44.8 U/dl; Activity (Rattus norvegicus [14]): 47.2 U/dl; Activity (Rattus norvegicus [15]): 63.2 mg/dL; Activity (Rattus norvegicus [16]): 59.2 mg/dL; Activity (Rattus norvegicus [17]): 145.6 mg/dL; Activity (Rattus norvegicus [18]): 165.8 mg/dL; Activity (Rattus norvegicus [19]): 161.4 mg/dL; Activity (Rattus norvegicus [20]): 143.3 mg/dL; Activity (Rattus norvegicus [21]): 131.4 mg/dL; Activity (Rattus norvegicus [22]): 116.4 mg/dL; Activity (Rattus norvegicus [23]): 158.6 mg/dL |
| O=[N+]([O-])c1cc(S(=O)(=O)Nc2ccccc2O)cc2c1Nc1ccccc1O2 | 88.88 | 85 | 71.38 | – | – | – | – | – |
| O=[N+]([O-])c1cc(S(=O)(=O)N2CCOCC2)cc2c1Nc1ccccc1O2 | 65.27 | 61.56 | 59.35 | – | – | – | – | – |
| O=[N+]([O-])c1cc(S(=O)(=O)Nc2ccccc2)cc2c1Nc1ccccc1O2 | 118.22 | 100 | 102.6 | – | – | – | – | – |
| CC(NS(=O)(=O)c1cc2c(c([N+](=O)[O-])c1)Nc1ccccc1O2)c1ccccc1 (stereo not drawn) | 94.28 | 77.74 | 78.26 | – | – | – | – | – |
| O=[N+]([O-])c1cc(S(=O)(=O)Nc2ccc(Cl)cc2)cc2c1Nc1ccccc1O2 | 60.93 | 91.66 | 106.25 | 76.9 | 93.77 | 106.23 | 100.36 | – |
| O=[N+]([O-])c1cc(S(=O)(=O)Nc2ccc(Br)cc2)cc2c1Nc1ccccc1O2 | 89.58 | 85.42 | 95.31 | 119.64 | 137.5 | 111.4 | 148.35 | Activity (Rattus norvegicus [19]): 172.2 mg/dL; Activity (Rattus norvegicus [20]): 165.6 mg/dL; Activity (Rattus norvegicus [21]): 157.5 mg/dL; Activity (Rattus norvegicus [22]): 145.6 mg/dL; Activity (Rattus norvegicus [23]): 165.8 mg/dL |
| COc1ccc(Cl)cc1C(=O)NCCc1ccc(S(=O)(=O)NC(=O)NC2CCCCC2)cc1 [GLYBURIDE] | 69.01 | 63.73 | 90.2 | 91.78 | 77.5 | 89 | 107.85 | Activity (Rattus norvegicus [11]): Active; Activity (Rattus norvegicus [12]): 244 g; Activity (Rattus norvegicus [13]): 42 U/dl; Activity (Rattus norvegicus [14]): 45.8 U/dl; Activity (Rattus norvegicus [15]): 61 mg/dL; Activity (Rattus norvegicus [16]): 57.8 mg/dL; Activity (Rattus norvegicus [17]): 88.3 mg/dL; Activity (Rattus norvegicus [18]): 93.3 mg/dL; Activity (Rattus norvegicus [19]): 151.9 mg/dL; Activity (Rattus norvegicus [20]): 127.2 mg/dL; Activity (Rattus norvegicus [21]): 107.5 mg/dL; Activity (Rattus norvegicus [22]): 101.9 mg/dL; Activity (Rattus norvegicus [23]): 147.2 mg/dL |
| CC(C)N(C(C)C)S(=O)(=O)c1cc2c(c([N+](=O)[O-])c1)Nc1ccccc1O2 | 69.44 | 63.05 | 67.5 | – | – | – | – | – |
| O=[N+]([O-])c1cc(S(=O)(=O)N2CCCCC2)cc2c1Nc1ccccc1O2 | 78.41 | 69.35 | 72.67 | – | – | – | – | – |
| CC(C)c1ccc(NS(=O)(=O)c2cc3c(c([N+](=O)[O-])c2)Nc2ccccc2O3)cc1 | 91.74 | 86.45 | 74.28 | 106 | 98 | 96.66 | 124.33 | – |
